Experimental findings from patent US12312332B2 (Merck Sharp & Dohme LLC., priority 2019, dated 2025) are described below.

Structures are written as SMILES. Bounds are passed on as bounds.

The target in the experiment is T1, human OX2R (Homo sapiens, UniProt O43614).
T1 construct: expressed in transfected cells; host or cells: Chinese hamster ovary (CHO) cells, kept under G418 selection
T1 sequence (O43614 1-444): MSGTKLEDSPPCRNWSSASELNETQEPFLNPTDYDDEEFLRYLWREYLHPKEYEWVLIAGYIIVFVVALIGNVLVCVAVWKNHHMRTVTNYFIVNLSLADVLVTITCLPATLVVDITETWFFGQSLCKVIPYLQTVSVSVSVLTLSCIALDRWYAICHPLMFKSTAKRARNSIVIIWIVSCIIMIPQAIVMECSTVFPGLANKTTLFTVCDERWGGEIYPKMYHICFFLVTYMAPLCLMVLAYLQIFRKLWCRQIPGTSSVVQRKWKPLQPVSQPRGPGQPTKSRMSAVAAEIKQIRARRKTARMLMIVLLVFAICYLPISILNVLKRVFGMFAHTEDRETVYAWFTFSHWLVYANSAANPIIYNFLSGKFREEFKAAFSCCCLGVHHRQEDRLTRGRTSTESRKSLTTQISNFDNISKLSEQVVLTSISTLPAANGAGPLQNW
The experiment is described as follows: IPOne (IP-One) orexin receptor agonist assay in CHO cells expressing human OX2R. The format is cell-based. The settings on record: for EC50: CHO cells expressing human OX2R, IP-One detection, 2 hours incubation, four parameter logistic fit, read-out: OX2R Potency, EC50; for % max agonist effect (Emax): human OX2R, percentage of sample raw value/mean max effect (reference compound at 1 uM with 100% activity).

By EC50 is commonly meant the midpoint of the concentration-response curve. For the compound `CS(=O)(=O)N[C@H]1CCN(c2cc(C(F)F)cc(C(F)F)n2)[C@H]1CO[C@H]1CC[C@@H](c2ccccc2)CC1` [Example 142, N-((2R,3S)-1-(4,6-bis(difluoromethyl)pyridin-2-yl)-2-((((CIS)-4-phenylcyclohexyl)oxy)methyl)pyrrolidin-3-yl)methanesulfonamide], the 50% effective concentration (EC50) was above 10000 nM and the “% max agonist effect (Emax)” value was found to be 15.8%.

`CS(=O)(=O)N[C@H]1CCN(c2cc(C(F)F)ccn2)[C@H]1CO[C@H]1CC[C@@H](c2ccccc2)CC1` [Example 143, N-((2R,3S)-1-(4-(difluoromethyl)pyridin-2-yl)-2-((((CIS)-4-phenylcyclohexyl)oxy)methyl)pyrrolidin-3-yl)methanesulfonamide]: the EC50 worked out at 1820 nM and the “% max agonist effect (Emax)” value amounted to 95.6%.

As to `Cc1ccnc(N2CC[C@H](NS(C)(=O)=O)[C@@H]2CO[C@H]2CC[C@@H](c3ccccc3)CC2)c1` [Example 144, N-((2R,3S)-1-(4-methylpyridin-2-yl)-2-((((CIS)-4-phenylcyclohexyl)oxy)methyl)pyrrolidin-3-yl)methanesulfonamide], the half-maximal effective concentration (EC50) was 794 nM and the “% max agonist effect (Emax)” value was 98%.

Take `CS(=O)(=O)N[C@H]1CCN(c2ccc(C#N)nc2)[C@H]1CO[C@H]1CC[C@@H](c2ccccc2)CC1` [Example 145, N-((2R,3S)-1-(6-cyanopyridin-3-yl)-2-((((CIS)-4-phenylcyclohexyl)oxy)methyl)pyrrolidin-3-yl)methanesulfonamide]: the EC50 was determined as 9.8 nM and the “% max agonist effect (Emax)” value was found to be 100.6%.

On to `COc1cccc(N2CC[C@H](NS(C)(=O)=O)[C@@H]2CO[C@H]2CC[C@@H](c3ccccc3)CC2)c1` [Example 146, N-((2R,3S)-1-(3-methoxyphenyl)-2-((((CIS)-4-phenylcyclohexyl)oxy)methyl)pyrrolidin-3-yl)methanesulfonamide], for which the EC50 came to 1830 nM and the “% max agonist effect (Emax)” value worked out at 84.6%.

In the case of `CS(=O)(=O)N[C@H]1CCN(c2cccc(C#N)c2)[C@H]1CO[C@H]1CC[C@@H](c2ccccc2)CC1` [Example 147, N-((2R,3S)-1-(3-cyanophenyl)-2-((((CIS)-4-phenylcyclohexyl)oxy)methyl)pyrrolidin-3-yl)methanesulfonamide], the concentration for a half-maximal effect (EC50) was above 10000 nM and the “% max agonist effect (Emax)” value is reported as 74.1%.

Take `CS(=O)(=O)N[C@H]1CCN(c2cccc(=O)[nH]2)[C@H]1CO[C@H]1CC[C@@H](c2ccccc2)CC1` [Example 148, N-((2R,3S)-1-(6-oxo-1,6-dihydropyridin-2-yl)-2-((((CIS)-4-phenylcyclohexyl)oxy)methyl)pyrrolidin-3-yl)methanesulfonamide]: the EC50 is 163 nM and the “% max agonist effect (Emax)” value stood at 99.3%.

Regarding `CS(=O)(=O)N[C@H]1CCN(c2cncc(O)n2)[C@H]1CO[C@H]1CC[C@@H](c2ccccc2)CC1` [Example 149, N-((2R,3S)-1-(6-hydroxypyrazin-2-yl)-2-((((CIS)-4-phenylcyclohexyl)oxy)methyl)pyrrolidin-3-yl)methanesulfonamide], the EC50 stood at 258 nM and the “% max agonist effect (Emax)” value is reported as 97.7%.

As for `CS(=O)(=O)N[C@H]1CCN(c2cc(O)ncn2)[C@H]1CO[C@H]1CC[C@@H](c2ccccc2)CC1` [Example 150, N-((2R,3S)-1-(6-hydroxypyrimidin-4-yl)-2-((((CIS)-4-phenylcyclohexyl)oxy)methyl)pyrrolidin-3-yl)methanesulfonamide], the 50% effective concentration (EC50) came out at 397 nM and the “% max agonist effect (Emax)” value was 99.4%.

Regarding `CS(=O)(=O)N[C@H]1CCN(c2cc(O)c(F)cn2)[C@H]1CO[C@H]1CC[C@@H](c2ccccc2)CC1` [Example 151, N-((2R,3S)-1-(5-fluoro-4-hydroxypyridin-2-yl)-2-((((CIS)-4-phenylcyclohexyl)oxy)methyl)pyrrolidin-3-yl)methanesulfonamide], the EC50 came out at 0.95 nM and the “% max agonist effect (Emax)” value is on record as 97.7%.

For `COc1cccc(N2CC[C@H](NS(C)(=O)=O)[C@@H]2CO[C@H]2CC[C@@H](c3ccccc3)CC2)n1` [Example 152, N-((2R,3S)-1-(6-methoxypyridin-2-yl)-2-((((CIS)-4-phenylcyclohexyl)oxy)methyl)pyrrolidin-3-yl)methanesulfonamide], the concentration for a half-maximal effect (EC50) came to 346 nM and the “% max agonist effect (Emax)” value came out at 97.6%.

On to `CS(=O)(=O)N[C@H]1CCN(c2cc(O)ncc2F)[C@H]1CO[C@H]1CC[C@@H](c2ccccc2)CC1` [Example 153, N-((2R,3S)-1-(5-fluoro-2-hydroxypyridin-4-yl)-2-((((CIS)-4-phenylcyclohexyl)oxy)methyl)pyrrolidin-3-yl)methanesulfonamide], for which the 50% effective concentration (EC50) turned out to be 169 nM and the “% max agonist effect (Emax)” value is listed as 100.8%.

Regarding `CS(=O)(=O)N[C@H]1CCN(c2cc[nH]c(=O)c2)[C@H]1CO[C@H]1CC[C@@H](c2ccccc2)CC1` [Example 154, N-((2R,3S)-1-(2-oxo-1,2-dihydropyridin-4-yl)-2-((((CIS)-4-phenylcyclohexyl)oxy)methyl)pyrrolidin-3-yl)methanesulfonamide], the concentration for a half-maximal effect (EC50) was determined as 52.3 nM and the “% max agonist effect (Emax)” value is recorded as 100.5%.

Take `CS(=O)(=O)N[C@H]1CCN(c2cccc(O)c2)[C@H]1CO[C@H]1CC[C@@H](c2ccccc2)CC1` [Example 155, N-((2R,3S)-1-(3-hydroxyphenyl)-2-((((CIS)-4-phenylcyclohexyl)oxy)methyl)pyrrolidin-3-yl)methanesulfonamide]: the EC50 amounted to 1860 nM and the “% max agonist effect (Emax)” value amounted to 94.4%.

Take `C[C@@H]1C[C@H](NS(=O)(=O)N(C)C)[C@H](CO[C@H]2CC[C@@H](c3cccc(F)c3)CC2)N1c1nccc(O)c1F` [Example 156, N′-((2R,3S,5R)-1-(3-fluoro-4-hydroxypyridin-2-yl)-2-((((CIS)-4-(3-fluorophenyl)cyclohexyl)oxy)methyl)-5-methylpyrrolidin-3-yl)-N,N-dimethyl-sulfamide]: the concentration giving a half-maximal response (EC50) was determined as 0.45 nM and the “% max agonist effect (Emax)” value was 100.8%.

For the compound `C[C@@H]1C[C@H](NS(=O)(=O)N(C)C)[C@H](CO[C@H]2CC[C@@H](c3cccc(F)c3)CC2)N1c1cc(O)ccn1` [Example 157, N′-((2R,3S,5R)-2-((((CIS)-4-(3-fluorophenyl)cyclohexyl)oxy)methyl)-1-(4-hydroxypyridin-2-yl)-5-methylpyrrolidin-3-yl)-N,N-dimethyl-sulfamide], the EC50 was 0.25 nM and the “% max agonist effect (Emax)” value was 100.2%.

As for `CS(=O)(=O)N[C@H]1CCCN(c2nccc(O)c2F)[C@H]1CO[C@H]1CC[C@@H](c2ccccc2)CC1` [Example 158, N-((2R,3S)-1-(3-fluoro-4-hydroxypyridin-2-yl)-2-((((CIS)-4-phenylcyclohexyl)oxy)methyl)piperidin-3-yl)methanesulfonamide], the EC50 stood at 32.5 nM and the “% max agonist effect (Emax)” value came out at 99.7%.

In the case of `CS(=O)(=O)NC1CCCN(c2cccnc2)C1CO[C@H]1CC[C@@H](c2ccccc2)CC1` (stereo partly drawn) [Example 159, N-(2-((((CIS)-4-phenylcyclohexyl)oxy)methyl)-1-(pyridin-3-yl)piperidin-3-yl)methanesulfamide], the 50% effective concentration (EC50) came out at 10.1 nM and the “% max agonist effect (Emax)” value worked out at 100.9%.

`CS(=O)(=O)N[C@H]1CCN(c2nccc(O)c2F)[C@H]1COC1CCC(c2ccccc2C(F)(F)F)CC1` (stereo partly drawn) [Example 160, N-((2R,3S)-1-(3-fluoro-4-hydroxypyridin-2-yl)-2-(((4-(2-(trifluoromethyl)phenyl)cyclohexyl)-oxy)methyl)pyrrolidin-3-yl)methanesulfonamide]: the concentration giving a half-maximal response (EC50) is 6.1 nM and the “% max agonist effect (Emax)” value worked out at 101.7%.

`CS(=O)(=O)N[C@H]1CCN(c2nccc(O)c2F)[C@H]1CO[C@H]1CC[C@@H](c2c(F)ccc(F)c2F)CC1` [Example 161, N-((2R,3S)-1-(3-fluoro-4-hydroxypyridin-2-yl)-2-((((CIS)-4-(2,3,6-trifluorophenyl)cyclohexyl)oxy)methyl)pyrrolidin-3-yl)methanesulfonamide]: the EC50 is 2 nM and the “% max agonist effect (Emax)” value worked out at 100.3%.

For the compound `CC(C)[C@H]1CC[C@@H](OC[C@H]2[C@@H](NS(C)(=O)=O)CCN2c2nccc(O)c2F)CC1` [Example 162, N-((2R,3S)-1-(3-fluoro-4-hydroxypyridin-2-yl)-2-((((CIS)-4-isopropylcyclohexyl)oxy)methyl)pyrrolidin-3-yl) methanesulfonamide], the concentration for a half-maximal effect (EC50) was found to be 24.3 nM and the “% max agonist effect (Emax)” value was 98.5%.

In the case of `CS(=O)(=O)N[C@H]1CCN(c2ncc(F)c(O)c2F)[C@H]1CO[C@H]1CC[C@@H](c2cccc(F)c2)CC1` [Example 163, N-((2R,3S)-1-(3,5-difluoro-4-hydroxypyridin-2-yl)-2-((((CIS)-4-(3-fluorophenyl)cyclohexyl)oxy)methyl)pyrrolidin-3-yl)methanesulfonamide], the concentration giving a half-maximal response (EC50) was 1.4 nM and the “% max agonist effect (Emax)” value is listed as 101.8%.

On to `C[C@@H]1C[C@H](NS(C)(=O)=O)[C@H](CO[C@H]2CC[C@@H](c3cccc(F)c3)CC2)N1c1[nH]ccc(=O)c1F` [Example 164, N-((2R,3S,5R)-1-(3-fluoro-4-oxo-1,4-dihydropyridin-2-yl)-2-((((CIS)-4-(3-fluorophenyl)cyclohexyl)oxy)methyl)-5-methylpyrrolidin-3-yl)methanesulfonamide], for which the EC50 amounted to 0.72 nM and the “% max agonist effect (Emax)” value is given as 98.6%.
